target: T1, Androgen Receptor (AR) (Homo sapiens, UniProt P10275, T878A); test: LNCaP Androgen Receptor Down-regulation Cell Assay (immunofluorescence end point); assay type: cell-based; details: LNCaP prostate carcinoma cells, compound incubation 20-22 hours, 50% reduction of the AR signal; read-out: Androgen Receptor Down-regulation Assay (a) IC50/μM
T1 construct: cell based immuno-fluorescence assay using the LNCaP prostate epithelial cell line; endogenous in cells; host or cells: LNCaP clone FGC (ATCC CRL-1740)
T1 sequence (P10275 1-920 T878A): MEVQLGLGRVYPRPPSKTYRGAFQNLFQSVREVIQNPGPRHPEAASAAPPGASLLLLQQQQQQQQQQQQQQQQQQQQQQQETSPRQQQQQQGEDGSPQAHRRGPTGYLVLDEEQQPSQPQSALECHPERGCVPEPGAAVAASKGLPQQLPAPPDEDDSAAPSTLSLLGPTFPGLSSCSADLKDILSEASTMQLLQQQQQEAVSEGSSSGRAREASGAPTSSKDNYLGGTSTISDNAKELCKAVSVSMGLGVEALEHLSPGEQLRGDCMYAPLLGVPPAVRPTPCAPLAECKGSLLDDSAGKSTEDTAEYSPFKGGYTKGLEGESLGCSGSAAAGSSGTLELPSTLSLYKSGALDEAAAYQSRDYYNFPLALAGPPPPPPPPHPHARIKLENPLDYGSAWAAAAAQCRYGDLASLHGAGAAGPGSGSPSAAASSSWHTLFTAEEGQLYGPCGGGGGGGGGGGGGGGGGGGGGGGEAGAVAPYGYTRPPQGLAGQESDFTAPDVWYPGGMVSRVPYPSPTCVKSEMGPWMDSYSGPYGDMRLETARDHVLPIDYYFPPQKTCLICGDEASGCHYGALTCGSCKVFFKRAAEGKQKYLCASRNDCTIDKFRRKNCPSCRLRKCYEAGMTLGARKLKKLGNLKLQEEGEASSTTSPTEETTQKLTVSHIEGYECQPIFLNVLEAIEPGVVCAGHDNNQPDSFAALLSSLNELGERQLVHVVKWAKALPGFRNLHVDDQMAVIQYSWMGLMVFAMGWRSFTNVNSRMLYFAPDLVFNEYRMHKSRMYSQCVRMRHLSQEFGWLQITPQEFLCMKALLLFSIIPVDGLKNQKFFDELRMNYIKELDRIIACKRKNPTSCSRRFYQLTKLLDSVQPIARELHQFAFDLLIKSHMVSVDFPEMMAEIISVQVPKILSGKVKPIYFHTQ
Method: The ability of compounds to reduce Androgen Receptor (AR) numbers was assessed in a cell based immuno-fluorescence assay using the LNCaP prostate epithelial cell line.
a) LNCaP Androgen Receptor Down-regulation Cell Assay
A 5 ml volume of Growth Medium was added to each flask (as above except that 5% (v/v) charcoal stripped FBS (HyClone Code no. SH30068.03) was included instead of 10% (v/v) FBS). Cells were syringed at least twice using a sterile 18G×1.5″ (1.2×40 mm) broad gauge needle and cell density was measured using a haemocytometer.
Test data reported herein was generated using two different compounds preparation and dosing methods. In method (1) a 10 mM compound stock solution in 100% (v/v) DMSO was serially diluted in 4-fold steps in 100% (v/v) DMSO using a Thermo Scientific Matrix SerialMate. The diluted compounds were then further diluted 1 in 30 in assay media using a Thermo Scientific Matrix PlateMate and a 10 μl aliquot of this dilution was dosed to cells manually using a multi-channel pipette. In method (2) starting with a 10 mM compound stock solution, the Labcyte Echo 550 was used to generate a compound concentration response set diluted in 30 μl of assay media. The Echo 550 is a liquid handler that uses acoustic technology to perform direct microplate-to-microplate transfers of DMSO compound solutions. The system can be programmed to transfer volumes as low as […] in multiple increments between microplates and in so doing generates a serial dilution of compound which is then back-filled to normalise the DMSO concentration across the dilution range. A 10 μl volume of diluted compound is then dosed to cells using a Thermo Scientific Matrix PlateMate.
Plates were incubated overnight at 37° C., 5% CO2. Wells were then dosed with compound prepared by one of the 2 methods above and further incubated for 20-22 hours at 37° C., 5% CO2. […] This fixative solution was removed and cells were washed with 250 μl of PBS/0.05% (v/v) Tween 20 (PBST) using an automated plate washer. This process was then repeated twice more.
Immunostaining was performed at room temperature. Cells were permeabilised by the addition of 35 μl of PBS containing 0.5% Tween 20 and incubated for 1 hour at room temperature. Permeabilisation solution was removed and cells were washed with 250 μl of PBST using an automated plate washer. This process was then repeated twice more. 35 μl of Blocking Solution (PBST containing 3% (w/v) Marvel dried skimmed milk (Nestle)) was added to each well and plates were incubated at room temperature for a minimum of 1 hour. […] Then this primary antibody solution was removed from the wells followed by 3×100 μl PBST washes using a plate washer. […] Henceforth, wherever possible, plates were protected from light exposure. The plates were incubated for 1 hour and then the secondary antibody solution was removed from the wells followed by 3×100 ul PBST washes using a plate washer. Then 50 μl of PBST was added to each well and plates were covered with a black plate seal and stored at 4° C. before being read. Plates were read within six hours of completing the immunostaining.
The Green Fluorescent AR-associated signal in each well was measured using an Acumen Explorer HTS Reader (TTP Labtech Ltd., Cambridge). […] The instrument is a laser-scanning fluorescence microplate cytometer which samples the well at regular intervals and uses threshold algorithms to identify all fluorescent intensities above the solution background without the need to generate and analyse an image. These fluorescent objects can be quantified and provide a measure of the AR levels in cells. Fluorescence dose response data obtained with each compound was exported into a suitable software package (such as Origin) to perform curve fitting analysis. Down-regulation of AR levels was expressed as an IC50 value.

Row | DC50 [µM] | SMILES
1 | 1.4 | FC(F)(F)c1nnc2ccc(N3CCN(c4ccccc4Cl)CC3)nn12 [Example 37, 6-[4-(2-chlorophenyl)piperazin-1-yl]-3-(trifluoromethyl)-[1,2,4]triazolo[4,3-b]pyridazine]
2 | 5 | O=C1OCc2ccccc2N1C1CCN(c2ccc3nnc(C(F)(F)F)n3n2)CC1 [Example 39, 1-[1-[3-(trifluoromethyl)-[1,2,4]triazolo[4,3-b]pyridazin-6-yl]piperidin-4-yl]-4H-3,1-benzoxazin-2-one]
3 | 3.3 | O=C1CCc2ccccc2N1C1CCN(c2ccc3nnc(C(F)(F)F)n3n2)CC1 [Example 40, 1-[1-[3-(trifluoromethyl)-[1,2,4]triazolo[4,3-b]pyridazin-6-yl]piperidin-4-yl]-3,4-dihydroquinolin-2-one]
4 | 1.5 | N#Cc1cccc(CN2CCN(c3ccc4nnc(C(F)(F)F)n4n3)CC2)c1 [Example 43, 3-[[4-[3-(trifluoromethyl)-[1,2,4]triazolo[4,3-b]pyridazin-6-yl]piperazin-1-yl]methyl]benzonitrile]
5 | 1.5 | Cc1ccc(CN2CCN(c3ccc4nnc(C(F)(F)F)n4n3)CC2)cc1 [Example 47, 6-[4-[(4-methylphenyl)methyl]piperazin-1-yl]-3-(trifluoromethyl)-[1,2,4]triazolo[4,3-b]pyridazine]
6 | 1.5 | FC(F)(F)c1nnc2ccc(N3CCN(Cc4nc5ccccc5s4)CC3)nn12 [Example 48, 6-[4-(1,3-benzothiazol-2-ylmethyl)piperazin-1-yl]-3-(trifluoromethyl)-[1,2,4]triazolo[4,3-b]pyridazine]
7 | 3.2 | FC(F)(F)c1nnc2ccc(N3CCN(Cc4nc5ccccc5o4)CC3)nn12 [Example 49, 6-[4-(1,3-benzoxazol-2-ylmethyl)piperazin-1-yl]-3-(trifluoromethyl)-[1,2,4]triazolo[4,3-b]pyridazine]
8 | 1.4 | FC(F)(F)c1nnc2ccc(N3CCN(Cc4ccnc5ccccc45)CC3)nn12 [Example 50, 4-[[4-[3-(trifluoromethyl)-[1,2,4]triazolo[4,3-b]pyridazin-6-yl]piperazin-1-yl]methyl]quinoline]
9 | 8.4 | FC(F)(F)c1nnc2ccc(N3CCN(Cc4nccs4)CC3)nn12 [Example 51, 6-[4-(1,3-thiazol-2-ylmethyl)piperazin-1-yl]-3-(trifluoromethyl)-[1,2,4]triazolo[4,3-b]pyridazine]
10 | 7.9 | FC(F)(F)c1nnc2ccc(N3CCN(Cc4csnn4)CC3)nn12 [Example 53, 6-[4-(thiadiazol-4-ylmethyl)piperazin-1-yl]-3-(trifluoromethyl)-[1,2,4]triazolo[4,3-b]pyridazine]
11 | 6.7 | Cn1c(CN2CCN(c3ccc4nnc(C(F)(F)F)n4n3)CC2)nc2ccccc21 [Example 54, 6-[4-[(1-methylbenzimidazol-2-yl)methyl]piperazin-1-yl]-3-(trifluoromethyl)-[1,2,4]triazolo[4,3-b]pyridazine]
12 | 8.8 | FC(F)(F)c1nnc2ccc(N3CCN(Cc4cnccn4)CC3)nn12 [Example 55, 6-[4-(pyrazin-2-ylmethyl)piperazin-1-yl]-3-(trifluoromethyl)-[1,2,4]triazolo[4,3-b]pyridazine]
13 | 2.1 | FC(F)(F)c1nnc2ccc(N3CCN(Cc4ccc5ccccc5n4)CC3)nn12 [Example 56, 2-[[4-[3-(trifluoromethyl)-[1,2,4]triazolo[4,3-b]pyridazin-6-yl]piperazin-1-yl]methyl]quinoline]
14 | 4.3 | CS(=O)(=O)c1ccccc1CN1CCN(c2ccc3nnc(C(F)(F)F)n3n2)CC1 [Example 57, 6-[4-[(2-methylsulfonylphenyl)methyl]piperazin-1-yl]-3-(trifluoromethyl)-[1,2,4]triazolo[4,3-b]pyridazine]
15 | 2.7 | N#Cc1ccccc1CN1CCN(c2ccc3nnc(C(F)(F)F)n3n2)CC1 [Example 59, 2-[[4-[3-(trifluoromethyl)-[1,2,4]triazolo[4,3-b]pyridazin-6-yl]piperazin-1-yl]methyl]benzonitrile]
16 | 0.61 | FC(F)(F)c1nnc2ccc(N3CCN(Cc4csc5ccccc45)CC3)nn12 [Example 60, 6-[4-(1-benzothiophen-3-ylmethyl)piperazin-1-yl]-3-(trifluoromethyl)-[1,2,4]triazolo[4,3-b]pyridazine]
17 | 7.4 | FC(F)(F)c1nnc2ccc(N3CCN(Cc4cscn4)CC3)nn12 [Example 61, 6-[4-(1,3-thiazol-4-ylmethyl)piperazin-1-yl]-3-(trifluoromethyl)-[1,2,4]triazolo[4,3-b]pyridazine]
18 | 0.72 | FC(F)(F)c1nnc2ccc(N3CCN(Cc4ccccc4Cl)CC3)nn12 [Example 62, 6-[4-[(2-chlorophenyl)methyl]piperazin-1-yl]-3-(trifluoromethyl)-[1,2,4]triazolo[4,3-b]pyridazine]
19 | 1.5 | FC(F)(F)c1nnc2ccc(N3CCN(Cc4cccc5cc[nH]c45)CC3)nn12 [Example 63, 6-[4-(1H-indol-7-ylmethyl)piperazin-1-yl]-3-(trifluoromethyl)-[1,2,4]triazolo[4,3-b]pyridazine]
20 | 2.5 | FC(F)(F)c1nnc2ccc(N3CCN(Cc4cnc5ccccc5c4)CC3)nn12 [Example 64, 3-[[4-[3-(trifluoromethyl)[1,2,4]triazolo[4,3-b]pyridazin-6-yl]piperazin-1-yl]methyl]quinoline]
21 | 0.76 | FC(F)(F)c1nnc2ccc(N3CCN(Cc4cccc5cnccc45)CC3)nn12 [Example 65, 5-[[4-[3-(trifluoromethyl)-[1,2,4]triazolo[4,3-b]pyridazin-6-yl]piperazin-1-yl]methyl]isoquinoline]
22 | 0.33 | FC(F)(F)c1nnc2ccc(N3CCN(Cc4cccc5ccccc45)CC3)nn12 [Example 66, 6-[4-(naphthalen-1-ylmethyl)piperazin-1-yl]-3-(trifluoromethyl)-[1,2,4]triazolo[4,3-b]pyridazine]
23 | 1 | FC(F)(F)c1ccccc1CN1CCN(c2ccc3nnc(C(F)(F)F)n3n2)CC1 [Example 67, 3-(trifluoromethyl)-6-[4-[[2-(trifluoromethyl)phenyl]methyl]piperazin-1-yl]-[1,2,4]triazolo[4,3-b]pyridazine]

— patent publication US8003649B2 (AstraZeneca AB, priority 2007, dated 2011)
